Reference: publication PMC11277446, “Discovery of Cell-Permeable Allosteric Inhibitors of Liver Pyruvate Kinase: Design and Synthesis of Sulfone-Based Urolithins” (International Journal of Molecular Sciences, 2024)
Values belong to the compound of their own block, whether it stands above or below them.

Assays:
PKL [1] = target: T1, PKL (Homo sapiens, UniProt P30613); test: Pyruvate kinase activity kinetic assay on HepG2 KO (PKL only) cell protein lysate; format: biochemical; settings: read-out: IC50 of PKL enzymatic activity inhibition
T1 construct: HepG2 KO cells were lysed and protein lysated with CelLytic M; host or cells: HepG2 PKM CRISPR KO cells
T1 sequence (P30613 1-543 isoform P30613-2): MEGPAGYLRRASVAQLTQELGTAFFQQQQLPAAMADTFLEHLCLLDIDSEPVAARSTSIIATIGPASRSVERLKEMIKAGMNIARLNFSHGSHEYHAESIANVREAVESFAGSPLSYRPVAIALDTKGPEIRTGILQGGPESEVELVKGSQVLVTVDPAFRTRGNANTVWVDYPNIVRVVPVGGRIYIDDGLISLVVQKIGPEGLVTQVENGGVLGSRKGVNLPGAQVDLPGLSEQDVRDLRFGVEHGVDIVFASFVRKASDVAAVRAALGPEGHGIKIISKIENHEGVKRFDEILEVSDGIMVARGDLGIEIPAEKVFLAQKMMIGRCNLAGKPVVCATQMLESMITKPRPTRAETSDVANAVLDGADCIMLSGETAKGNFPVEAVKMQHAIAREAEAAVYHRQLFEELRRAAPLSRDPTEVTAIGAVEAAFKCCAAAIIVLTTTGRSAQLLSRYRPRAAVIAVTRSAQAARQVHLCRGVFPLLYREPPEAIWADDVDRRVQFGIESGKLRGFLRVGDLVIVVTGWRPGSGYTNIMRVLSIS

PKL [2] = target: T1, PKL; test: as above; format: biochemical
Experimental: (§1) HepG2 KO cells were lysed and protein lysated with CelLytic M (C2978, Sigma-Aldrich, St. Louis, MO, USA) lysis buffer. The effect of 10 µM compounds on pyruvate kinase activity on protein lysate was measured with the Pyruvate Kinase Assay Kit (ab83432, Abcam, Cambridge, UK), followed by the manufacturer’s instructions. 2 × 10^4 HepG2 WT cells and 1 × 10^5 HepG2 KO cells were seeded into 96-well plates for a pyruvate kinase activity assay on cells. Drugs were treated at 20 µM concentration on the cell for 4 h and washed with 250 µL of PBS. Cells were lysed with 50 µL PK assay buffer (ab83432, Abcam) and started reaction and kinetic O.D measurement with 50 µL PK assay buffer that contained the assay component (ab83432, Abcam). O.D. values were measured with a microplate reader (Hidex Sense Beta Plus, Turku, Finland) at 570 nm wavelength.

PKL [3] = system: PKL; set-up: method as in PMID 36753880; settings: 10 μM in liver cell lysate; cited from earlier work
PKL [4] = settings: Figure 2, background data; cited from earlier work
PKM [5] = target: T2, PKM (Homo sapiens, UniProt P14618); test: Cellular Thermal Shift Assay (CETSA), PKM; format: cell-based; settings: HepG2 WT cells, 2 h treatment, 60 °C heat shock 5 min, western blot
T2 construct: HepG2 WT cells were trypsinized and transferred into a 1.5 mL tube; host or cells: HepG2 WT cells
T2 sequence (P14618 2-531 limits assumed): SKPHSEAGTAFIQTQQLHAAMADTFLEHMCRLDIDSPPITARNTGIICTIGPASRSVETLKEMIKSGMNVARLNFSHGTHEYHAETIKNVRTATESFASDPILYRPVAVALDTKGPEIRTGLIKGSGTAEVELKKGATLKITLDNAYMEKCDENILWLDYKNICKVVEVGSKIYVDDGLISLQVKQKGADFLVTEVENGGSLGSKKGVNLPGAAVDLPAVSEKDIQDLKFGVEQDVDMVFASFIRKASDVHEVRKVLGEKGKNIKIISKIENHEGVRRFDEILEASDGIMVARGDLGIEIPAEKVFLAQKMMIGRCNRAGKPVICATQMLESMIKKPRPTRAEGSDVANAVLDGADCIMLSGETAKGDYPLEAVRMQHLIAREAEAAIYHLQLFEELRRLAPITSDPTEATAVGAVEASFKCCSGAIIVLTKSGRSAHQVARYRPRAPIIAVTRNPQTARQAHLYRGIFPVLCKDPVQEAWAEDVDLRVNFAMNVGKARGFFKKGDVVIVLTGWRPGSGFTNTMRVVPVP
Experimental: (§2) HepG2 WT cells were trypsinized and transferred into a 1.5 mL tube at 500,000 cells per mL concentration. Compound 15e was treated with 10 µM and 20 µM in the 1.5 mL tube and incubated for 2 h in a 37 °C CO2 incubator. Tubes sustained heat shock at 60 °C for 5 min. with a pre-heated heat block. After centrifugation for heated cells at 13,000 rpm for 1 min, cell pellets were lysed with 50 µL of Native lysis Buffer (ab156035, Abcam). Centrifugation was again used to purify soluble proteins in a lysed solution, and the same volume (9 µL) of each group was analyzed using Western blot.

ChREBP = test: Western blot of DNL pathway proteins in HepG2 steatosis model, ChREBP; format: cell-based, human; settings: 5 µM, one week
Experimental: (§3) After steatosis induction with a designated concentration of compounds, whole cell lysate was prepared with CelLytic M (C2978, Sigma-Aldrich) buffer. SDS PAGE was performed using Mini-PROTEAN® TGX™ Precast Gels (Bio-Rad, Hercules, CA, USA) and transferred using the Trans-Blot® Turbo™ Transfer System (Bio-Rad). FASN (ab22759, Abcam), ChREBP (92809, Abcam), PKL (06653, Sigma), PKM (4053S, Cell Signaling Technology, Danvers, MA, USA), β-actin (ab8227, Abcam), and GAPDH (sc-47724, Santa Cruz Biotechnology, Inc., Dallas, TX, USA) were blotted as primary antibodies overnight. Secondary antibodies, Goat Anti-Rabbit HRP (ab205718, Abcam) and goat anti-mouse IgG-HRP (sc2005, Santa Cruz Biotechnology, Inc.), were blotted for one hour. The protein band was detected with ImageQuantTMLAS 500 (29-0050-63, GE Healthcare Bio-Sciences AB, Uppsala, Sweden).

[6] = system: PK activity in HepG2 WT cells (PKM and PKL); test: Pyruvate kinase activity assay on compound-treated HepG2 WT cells; format: cell-based, human; settings: 20 µM, 4 h
Experimental: as §1

PKL in HepG2 KO cells = target: T3, PKL in HepG2 KO cells (Homo sapiens, UniProt P30613); test: Pyruvate kinase activity assay on compound-treated HepG2 KO cells (whole-cell assay); format: cell-based
T3 construct: host or cells: HepG2 PKM CRISPR KO cells
T3 sequence (P30613 1-543 isoform P30613-2): as the sequence (P30613 1-543 isoform P30613-2) above
Experimental: as §1

PKM [7] = test: Western blot of DNL pathway proteins in HepG2 steatosis model, PKM; format: cell-based, human; settings: 5 µM, one week
Experimental: as §3

[8] = system: HepG2 de novo lipogenic (DNL) steatosis model; test: TAG measurement in HepG2 DNL steatosis model; format: cell-based, human; settings: one week
Experimental: (§4) HepG2 wild-type cells and HepG2 PKM CRISPR KO cells were purchased from the genome engineering company Synthego (Menlo Park, CA, USA). Cells were maintained with growth media RPMI 1640 (R2405, Sigma-Aldrich) and supplemented with 10% fetal bovine serum (FBS, F7524, Sigma-Aldrich) and 1% P/S (P4333, Sigma-Aldrich). Steatosis induction media was prepared as DMEM high glucose (D0819, Sigma-Aldrich) with 10% FBS, 1% P/S media supplemented with 10 µg/mL insulin (I9278, Sigma-Aldrich), and 10 µM T0901317 (T2320, Sigma-Aldrich) for one week. HepG2 cells were seeded 6 × 10^4 cells per well into a 96-well plate for TAG and MTT assays after steatosis and 1 × 10^6 cells per well into a 6-well plate for western blot analysis after steatosis. HepG2 cells were incubated with steatosis-inducing media for one week by 3 days + 2 days + 2 days with a total of three media exchanges.
(§5) HepG2 cells were seeded at 6 × 10^4 cells per well into 96-well plates and induced steatosis for one week with a designated concentration of small molecules. After steatosis induction, cells were washed with 200 µL of PBS, and triglyceride contents were measured by the Triglyceride Assay Kit-Quantification (ab65336, Abcam) following the manufacturer’s instructions. O.D. values were detected with a microplate reader at 570 nm (Hidex Sense Beta Plus). A 5 mg/mL MTT (M2128, Sigma-Aldrich) solution in PBS (10 µL) was added to each well for the MTT assay. After 1 h, the MTT solution and all media were removed from the wells. 100 μL of DMSO was added and mixed to dissolve the formazan crystals. Cell viability was analyzed by measuring the absorbance of the dissolved formazan in a microplate reader at a wavelength of 570 nm with a microplate reader (Hidex Sense Beta Plus).

PKL [9] = test: Western blot of DNL pathway proteins in HepG2 steatosis model, PKL; format: cell-based, human; settings: 5 µM, one week
Experimental: as §3

[10] = system: HepG2 de novo lipogenic (DNL) steatosis model; test: MTT cell viability assay in HepG2 DNL steatosis model; format: cell-based, human
Experimental: as §4, with “HepG2 cells were incubated with steatosis-inducing media for one week by 3 days + 2 days + 2 days with a total of three media exchanges.” left out
as §5, with “A 5 mg/mL MTT (M2128, Sigma-Aldrich) solution in PBS (10 µL) was added to each well for the MTT assay. After 1 h, the MTT solution and all media were removed from the wells. 100 μL of DMSO was added and mixed to dissolve the formazan crystals.” left out

PKL [11] = target: T1, PKL; test: Cellular Thermal Shift Assay (CETSA), PKL; format: cell-based; settings: HepG2 WT cells, 2 h treatment, 60 °C heat shock 5 min, western blot
Experimental: as §2

FASN = test: Western blot of DNL pathway proteins in HepG2 steatosis model, FASN; format: cell-based, human; settings: 5 µM, one week
Experimental: as §3

[12] = system: HepG2 de novo lipogenic (DNL) steatosis model; set-up: method as in PMID 37674987; settings: cited from earlier work

- IC50 (PKL [1]): 18.7 µM
- inhibition at 10 µM (PKL [2]): 44.1%
SMILES: O=S(=O)(NCc1ccc(F)cc1)c1cc(O)c(O)cc1-c1ccc(O)c(O)c1 [12d, N-(4-fluorobenzyl)-3′,4,4′,5-tetrahydroxy-[1,1′-biphenyl]-2-sulfonamide]

- melting point: 189 to 190 °C
SMILES: O=S1(=O)c2cc(O)c(O)cc2-c2ccc(C(F)(F)F)cc2N1Cc1ccc(F)cc1 [18e, 6-(4-fluorobenzyl)-2,3-dihydroxy-8-(trifluoromethyl)-6H-dibenzo[c,e][1,2]thiazine 5,5-dioxide]

- IC50 (PKL [1]): 4.3 µM
- inhibition at 10 µM (PKL [2]): 40.9%
SMILES: O=S(=O)(NCc1ccccc1)c1cc(O)c(O)cc1-c1ccc(O)c(O)c1 [9d, N-benzyl-3′,4,4′,5-tetrahydroxy-[1,1′-biphenyl]-2-sulfonamide]

- IC50 (PKL [1]): 17.3 µM
- inhibition at 10 µM (PKL [2]): 47.6%
SMILES: O=S1(=O)c2cc(O)c(O)cc2-c2cc(O)ccc2N1Cc1ccccc1 [15a, 6-benzyl-2,3,9-trihydroxy-6H-dibenzo[c,e][1,2]thiazine 5,5-dioxide]

SMILES: O=c1oc2c(O)c(O)cc3c(=O)oc4c(O)c(O)cc1c4c23 [Ellagic acid, ellagic acid]
- inhibition of PKL (PKL [3]): 21%
- inhibition on whole cell assay (PKL [4]): didn't observe inhibition on whole cell assay

- IC50 (PKL [1]): 7.1 µM
- inhibition at 10 µM (PKL [2]): 29.8%
SMILES: O=S1(=O)c2cc(O)c(O)cc2-c2cc(O)c(O)cc2N1Cc1ccccc1 [15d, 6-benzyl-2,3,8,9-tetrahydroxy-6H-dibenzo[c,e][1,2]thiazine 5,5-dioxide]

- increase in PKM level (CETSA) (PKM [5]): 12%
- activity at 20 µM (PKL in HepG2 KO cells; 20 µM in culture media for 4 h, HepG2 KO cells): 67.1%
- PKL inhibition in whole cells (PKL in HepG2 KO cells; 20 µM, 4 h, HepG2 KO cells): significant PKL inhibition
- inhibition at 20 µM (PKL in HepG2 KO cells; 20 µM, 4 h, HepG2 KO cells (PKL only), Figure 6a, read-out: inhibition of PK activity): 25%
- IC50 (PKL [1]): 10.8 µM
- inhibition at 10 µM (PKL [2]): 42.9%
- decrease in PKL level (CETSA) (PKL [11]): 38%
SMILES: O=S1(=O)c2cc(O)c(O)cc2-c2ccc(C(F)(F)F)cc2N1Cc1ccccc1 [15e, 6-benzyl-2,3-dihydroxy-8-(trifluoromethyl)-6H-dibenzo[c,e][1,2]thiazine 5,5-dioxide]
- protein level of ChREBP (ChREBP): remained unaffected
- activation of PK activity [6]: 9%
- protein level of PKM (PKM [7]): remained unaffected
- TAG contents ([8]; 0.625 µM): 80.4% ± 3.2
- TAG contents ([8]; 1.25 µM): 62.7% ± 2.9
- TAG contents ([8]; 2.5 µM): 56.3% ± 1.9
- TAG contents ([8]; 5 µM): 55.6% ± 2.4
- reduction in expression level of PKL (PKL [9]): 45%
- cytotoxicity ([10]; 5 µM to 0.625 µM, one week): did not show cytotoxicity
- toxicity ([10]; 10 µM, one-week DNL steatosis procedure): high toxicity
- reduction in expression level of FASN (FASN): up to 79%

- IC50 (PKL [1]): 11.5 µM
- inhibition at 10 µM (PKL [2]): 50.8%
SMILES: O=S1(=O)c2cc(O)c(O)cc2-c2cc(O)ccc2N1Cc1ccc(F)cc1 [18a, 6-(4-fluorobenzyl)-2,3,9-trihydroxy-6H-dibenzo[c,e][1,2]thiazine 5,5-dioxide]

- PKL inhibition in whole cells (PKL in HepG2 KO cells; 20 µM, 4 h, HepG2 KO cells): did not inhibit PKL activity in cells
- IC50 (PKL [1]): 4.7 µM
- inhibition at 10 µM (PKL [2]): 33%
SMILES: O=c1oc2cc(O)ccc2c2cc(O)c(O)cc12 [Urolithin C, urolithin C, reference compound]
- inhibition of PKL (PKL [3]): 33%

SMILES: N#Cc1c(NC(=O)c2cccc3ccccc23)sc2c1CCCC2 [JNK-IN-5A]
- effect on TAG [12]: reduced TAG
